Test results as given in paper PMC6857076 (Pharmacology Research & Perspectives, 2019).
pIC50: −log10 of the molar value. Like-named read-outs stand apart in the source and are kept apart here.

Experiments:
[1] = test system: EPO cytokine receptor (JAK2/JAK2); experiment: Human whole blood spiked with CD34+-derived erythroid progenitor cells, EPO-induced pSTAT5; format: cell-based; settings: for pIC50: Homo sapiens, Erythroid progenitor cell
Protocol: CD34^+ cells were then harvested, washed once with Dulbecco's (D)‐PBS, and suspended at 0.5 x 10^6 cells/mL in human whole blood to be used in the EPO stimulation assay.
Blood was warmed to 37°C prior to use.
Background fluorescence was defined using unstimulated cells and a gate was placed at the foot of the peak to include ~0.5% gated population.
(§1) Histogram statistical analysis was performed using FACSDiva version 8.0.1 (BD Biosciences). Relative fluorescence unit (RFU), which measures the level of pSTAT, was calculated by multiplying the percent positive population and its mean fluorescence. Data from 11 compound concentrations (singlicate at each concentration) were normalized as a percentage of control, as shown in Equation 1:(1) %ofcontrol=100×A−B/C−B
(§2) A, RFU from wells containing compound and cytokine; B, RFU from wells without cytokine (minimum fluorescence); C, RFU from wells containing only cytokine (maximum fluorescence).
(§3) Inhibition curves and IC50 values were determined using Prism software (Version 7, GraphPad).

[2] = test system: IL-15 cytokine receptor (JAK1/JAK3); experiment: Human whole blood, IL-15-induced pSTAT5, lymphocytes; format: cell-based; settings: for pIC50: Homo sapiens, Lymphocyte
Protocol: Blood was warmed to 37°C prior to use.
(§4) Then, 5 µL of PBS or cytokine was added to each well (5 µL/well; final, 10 U/mL EPO, 100 ng/mL G‐CSF, 10 ng/mL GM‐CSF, 5000 U/mL IFNα, 100 ng/mL IFNγ, 50 ng/mL IL‐2, 50 ng/mL IL‐3, 5 ng/mL IL‐4, 50 ng/mL IL‐6, 30 ng/mL IL‐7, 30 ng/mL IL‐10, 30 ng/mL IL‐12, 30 ng/mL IL‐13, 30 ng/mL IL‐15, 50 ng/mL IL‐21, 25 ng/mL IL‐23, 1000 ng/mL IL‐27) and incubated for 15 minutes. Anti‐cell surface antibodies were added 15 minutes prior to cytokine stimulation; anti‐CD14‐Pacific Blue (0.5 µL/well) to GM‐CSF, IFNγ, and TPO‐treated samples; anti‐CD3‐BV650 (0.5 µL/well) plus anti‐CD14‐Pacific Blue (0.5 µL/well) to IL‐6‐treated samples; and anti‐CD19‐BV421 (0.5 µL/well) plus anti‐CD14‐AF488 (0.5 µL/well) to IL‐13‐treated samples.
(§5) One more wash was done with staining buffer and all samples were finally suspended in 150 µL/well of the desired anti‐pSTAT antibodies at 1:150 dilution in staining buffer; anti‐pSTAT1‐AF647 in IFNγ‐treated samples; anti‐pSTAT1‐AF488 and anti‐pSTAT3‐AF647 in IFNα‐, IL‐6‐, and IL‐27‐treated samples; anti‐pSTAT3‐AF647 in G‐CSF‐, IL‐10‐, IL‐21‐, and IL‐23‐treated samples; anti‐pSTAT4‐AF647 in IL‐12‐treated samples; anti‐pSTAT5‐AF647 in EPO‐, GM‐CSF‐, IL‐2‐, IL‐3‐, IL‐7‐, IL‐15‐, and TPO‐treated samples; anti‐pSTAT5‐AF488 and anti‐pSTAT6‐AF647 in IL‐4‐treated samples; and anti‐pSTAT6‐AF647 in IL‐13‐treated samples.
(§6) The lymphocyte population was gated for pSTAT histogram analysis for IFNα‐, IL‐2‐, IL‐3‐, IL‐4‐, IL‐7‐, IL‐10‐, IL‐12‐, IL‐15‐, IL‐21‐, IL‐23‐, and IL‐27‐treated samples; granulocyte population for G‐CSF‐treated samples; CD14^+ cells for GM‐CSF‐, IFNγ‐, and TPO‐treated samples; CD3^+ cells and CD14^+ cells for IL‐6‐treated samples; CD14^+ cells and CD19^+ cells for IL‐13‐treated samples; all events (entire populations) for EPO‐treated cells. Background fluorescence was defined using unstimulated cells and a gate was placed at the foot of the peak to include ~0.5% gated population.
as §1, §2, §3

[3] = test system: IL-23 cytokine receptor (JAK2/TYK2); experiment: Human whole blood, IL-23-induced pSTAT3, lymphocytes; format: cell-based; settings: Lymphocyte
Protocol: Blood was warmed to 37°C prior to use.
(§7) Then, 5 µL of PBS or cytokine was added to each well (5 µL/well; final, 10 U/mL EPO, 100 ng/mL G‐CSF, 10 ng/mL GM‐CSF, 5000 U/mL IFNα, 100 ng/mL IFNγ, 50 ng/mL IL‐2, 50 ng/mL IL‐3, 5 ng/mL IL‐4, 50 ng/mL IL‐6, 30 ng/mL IL‐7, 30 ng/mL IL‐10, 30 ng/mL IL‐12, 30 ng/mL IL‐13, 30 ng/mL IL‐15, 50 ng/mL IL‐21, 25 ng/mL IL‐23, 1000 ng/mL IL‐27) and incubated for 15 minutes. […]
as §6
(§8) Histogram statistical analysis was performed using FACSDiva version 8.0.1 (BD Biosciences). Relative fluorescence unit (RFU), which measures the level of pSTAT, was calculated by multiplying the percent positive population and its mean fluorescence. […]
as §3

[4] = test system: G-CSF cytokine receptor (JAK1/JAK2); experiment: Human whole blood, G-CSF-induced pSTAT3, granulocytes; format: cell-based
Protocol: Blood was warmed to 37°C prior to use.
as §7, §6, §8, §3

[5] = test system: IL-27 cytokine receptor (JAK1/JAK2, JAK1/TYK2); experiment: Human whole blood, IL-27-induced pSTAT1, lymphocytes; format: cell-based; settings: Lymphocyte
Protocol: Blood was warmed to 37°C prior to use.
(§9) Anti‐cell surface antibodies were added 15 minutes prior to cytokine stimulation; anti‐CD14‐Pacific Blue (0.5 µL/well) to GM‐CSF, IFNγ, and TPO‐treated samples; anti‐CD3‐BV650 (0.5 µL/well) plus anti‐CD14‐Pacific Blue (0.5 µL/well) to IL‐6‐treated samples; and anti‐CD19‐BV421 (0.5 µL/well) plus anti‐CD14‐AF488 (0.5 µL/well) to IL‐13‐treated samples.
as §6, §1, §2, §3

[6] = test system: IL-4 cytokine receptor (JAK1/JAK3); experiment: Human whole blood, IL-4-induced pSTAT5, lymphocytes; format: cell-based; settings: Lymphocyte
Protocol: Blood was warmed to 37°C prior to use.
as §7, §6, §8, §3

[7] = test system: IL-3 cytokine receptor (JAK2/JAK2); experiment: Human whole blood, IL-3-induced pSTAT5, lymphocytes; format: cell-based; settings: Homo sapiens, Lymphocyte
Protocol: Blood was warmed to 37°C prior to use.
as §4, §5, §6, §1, §2, §3

[8] = test system: GM-CSF cytokine receptor (JAK2/JAK2); experiment: Human whole blood, GM-CSF-induced pSTAT5, CD14+ cells; format: cell-based; settings: Homo sapiens
Protocol: Blood was warmed to 37°C prior to use.
as §4, §5, §6, §1, §2, §3

[9] = test system: IL-13 cytokine receptor (JAK1/JAK2, JAK1/TYK2); experiment: Human whole blood, IL-13-induced pSTAT6, CD19+ cells; format: cell-based
Protocol: Blood was warmed to 37°C prior to use.
as §9, §6, §1, §2, §3

[10] = test system: IL-6 cytokine receptor (JAK1/JAK2, JAK1/TYK2); experiment: Human whole blood, IL-6-induced pSTAT3, CD3+ cells; format: cell-based
Protocol: Blood was warmed to 37°C prior to use.
as §9, §6, §1, §2, §3

[11] = test system: IL-4 cytokine receptor (JAK1/JAK3); experiment: Human whole blood, IL-4-induced pSTAT6, lymphocytes; format: cell-based; settings: Lymphocyte
Protocol: Blood was warmed to 37°C prior to use.
as §4, §5, §6, §1, §2, §3

[12] = test system: IL-10 cytokine receptor (JAK1/TYK2); experiment: Human whole blood, IL-10-induced pSTAT3, lymphocytes; format: cell-based; settings: Lymphocyte
Protocol: Blood was warmed to 37°C prior to use.
as §4, §5, §6, §1, §2, §3

[13] = test system: IL-27 cytokine receptor (JAK1/JAK2, JAK1/TYK2); experiment: Human whole blood, IL-27-induced pSTAT3, lymphocytes; format: cell-based; settings: Lymphocyte
Protocol: Blood was warmed to 37°C prior to use.
as §4, §5, §6, §1, §2, §3

[14] = human; upadacitinib 15 mg QD; cited from earlier work
[15] = test system: IFNα cytokine receptor (JAK1/TYK2); experiment: Human whole blood, IFNα-induced pSTAT3, lymphocytes; format: cell-based; settings: Lymphocyte
Protocol: Blood was warmed to 37°C prior to use.
as §4, §5, §6, §1, §2, §3

[16] = test system: IL-13 cytokine receptor (JAK1/JAK2, JAK1/TYK2); experiment: Human whole blood, IL-13-induced pSTAT6, CD14+ cells; format: cell-based
Protocol: Blood was warmed to 37°C prior to use.
as §9, §6, §1, §2, §3

[17] = unbound, Cav × fu; upadacitinib 15 mg QD
[18] = test system: IFNα cytokine receptor (JAK1/TYK2); experiment: Human whole blood, IFNα-induced pSTAT1, lymphocytes; format: cell-based; settings: for pIC50: Homo sapiens, Lymphocyte
Protocol: Blood was warmed to 37°C prior to use.
as §4, §5, §6, §1, §2, §3

[19] = test system: IL-7 cytokine receptor (JAK1/JAK3); experiment: Human whole blood, IL-7-induced pSTAT5, lymphocytes; format: cell-based; settings: Lymphocyte
Protocol: Blood was warmed to 37°C prior to use.
as §4, §5, §6, §1, §2, §3

[20] = test system: IL-6 cytokine receptor (JAK1/JAK2, JAK1/TYK2); experiment: Human whole blood, IL-6-induced pSTAT1, CD14+ cells; format: cell-based
Protocol: Blood was warmed to 37°C prior to use.
as §9, §6, §1, §2, §3

[21] = test system: IFNγ cytokine receptor (JAK1/JAK2); experiment: Human whole blood, IFNγ-induced pSTAT1, CD14+ cells; format: cell-based; settings: for pIC50: Homo sapiens
Protocol: Blood was warmed to 37°C prior to use.
as §4, §5, §6, §1, §2, §3

[22] = test system: TPO cytokine receptor (JAK2/JAK2); experiment: Human whole blood, TPO-induced pSTAT5, CD14+ cells; format: cell-based; settings: Homo sapiens
Protocol: Blood was warmed to 37°C prior to use.
as §4, §5, §6, §1, §2, §3

[23] = test system: IL-6 cytokine receptor (JAK1/JAK2, JAK1/TYK2); experiment: Human whole blood, IL-6-induced pSTAT1, CD3+ cells; format: cell-based; settings: for pIC50: Homo sapiens
Protocol: Blood was warmed to 37°C prior to use.
as §4, §5, §6, §1, §2, §3

CRP = settings: RA; upadacitinib 6 mg BID; cited from earlier work
[24] = test system: IL-2 cytokine receptor (JAK1/JAK3); experiment: Human whole blood, IL-2-induced pSTAT5, lymphocytes; format: cell-based; settings: Lymphocyte
Protocol: Blood was warmed to 37°C prior to use.
as §4, §5, §6, §1, §2, §3

[25] = phase 3 RA studies; cited from earlier work
[26] = test system: IL-12 cytokine receptor (JAK2/TYK2); experiment: Human whole blood, IL-12-induced pSTAT4, lymphocytes; format: cell-based; settings: for pIC50: Homo sapiens, Lymphocyte
Protocol: Blood was warmed to 37°C prior to use.
as §4, §5, §6, §1, §2, §3

[27] = test system: IL-21 cytokine receptor (JAK1/JAK3); experiment: Human whole blood, IL-21-induced pSTAT3, lymphocytes; format: cell-based; settings: Lymphocyte
Protocol: Blood was warmed to 37°C prior to use.
as §4, §5, §6, §1, §2, §3

in vitro = settings: both, human, pooled human plasma

For `CC[C@@H]1CN(C(=O)NCC(F)(F)F)C[C@@H]1c1cnc2cnc3[nH]ccc3n12` [Upadacitinib], the “LogIC50, EPO induced pSTAT5, single experiment” value [1] was -6.909 log[M], the pIC50 ([1]; read-out: IC50, EPO induced pSTAT5, single experiment) was 6.91 and the pIC50 ([1]; read-out: IC50, EPO, pSTAT5) was 6.76. The pIC50 ([1]; read-out: IC50,u, EPO, pSTAT5) was 7.08, the “LogIC50, IL-15 induced pSTAT5, single experiment” value [2] was -7.157 log[M] and the pIC50 ([2]; read-out: IC50, IL-15, pSTAT5) was 7.19. It also gave a pIC50 ([2]; read-out: IC50, IL-15 induced pSTAT5, single experiment) of 7.16, a pIC50 ([2]; read-out: IC50,u, IL-15, pSTAT5) of 7.51 and a pIC50 ([3]; read-out: IC50, IL-23, pSTAT3) of 6.62. It also gave a pIC50 ([3]; read-out: IC50,u, IL-23, pSTAT3) of 6.93, a pIC50 ([4]; read-out: IC50, G-CSF, pSTAT3) of 7.11 and a pIC50 ([4]; read-out: IC50,u, G-CSF, pSTAT3) of 7.42. It also gave a pIC50 ([5]; read-out: IC50, IL-27, pSTAT1) of 7.28, a pIC50 ([5]; read-out: IC50,u, IL-27, pSTAT1) of 7.60 and a pIC50 ([6]; read-out: IC50, IL-4, pSTAT5) of 8.09. For the same compound, the pIC50 ([6]; read-out: IC50,u, IL-4, pSTAT5) was 8.40, the pIC50 ([7]; read-out: IC50, IL-3, pSTAT5) was 6.49 and the pIC50 ([7]; read-out: IC50,u, IL-3, pSTAT5) was 6.80. It also gave a pIC50 ([8]; read-out: IC50, GM-CSF, pSTAT5) of 6.11, a pIC50 ([8]; read-out: IC50,u, GM-CSF, pSTAT5) of 6.42 and a pIC50 ([9]; read-out: IC50, IL-13, pSTAT6, CD19+ cells) of 7.14. For the same compound, the pIC50 ([9]; read-out: IC50,u, IL-13, pSTAT6, CD19+ cells) was 7.46, the pIC50 ([10]; read-out: IC50, IL-6, pSTAT3, CD3+ cells) was 6.82 and the pIC50 ([10]; read-out: IC50,u, IL-6, pSTAT3, CD3+ cells) was 7.14. It also gave a pIC50 ([11]; read-out: IC50, IL-4, pSTAT6) of 7.11, a pIC50 ([11]; read-out: IC50,u, IL-4, pSTAT6) of 7.43 and a pIC50 ([12]; read-out: IC50, IL-10, pSTAT3) of 7.05. The pIC50 ([12]; read-out: IC50,u, IL-10, pSTAT3) was 7.37, the pIC50 ([13]; read-out: IC50, IL-27, pSTAT3) was 7.36 and the pIC50 ([13]; read-out: IC50,u, IL-27, pSTAT3) was 7.68. For the same compound, the Cav [14] was 49 nM, the pIC50 ([15]; read-out: IC50, IFNα, pSTAT3) was 7.72 and the pIC50 ([15]; read-out: IC50,u, IFNα, pSTAT3) was 8.04. The pIC50 ([16]; read-out: IC50, IL-13, pSTAT6, CD14+ cells) was 6.90, the pIC50 ([16]; read-out: IC50,u, IL-13, pSTAT6, CD14+ cells) was 7.21 and the “Cav,u” value [17] was 27.4 nM. The “LogIC50, IFNα induced pSTAT1, single experiment” value ([18]; Figure S1B, Donor 256, Exp 1) was -7.685 log[M], the pIC50 ([18]; read-out: IC50, IFNα induced pSTAT1, single experiment) was 7.68 and the pIC50 ([18]; read-out: IC50, IFNα, pSTAT1) was 7.68. It also gave a pIC50 ([18]; read-out: IC50,u, IFNα, pSTAT1) of 8.00, a pIC50 ([19]; read-out: IC50, IL-7, pSTAT5) of 7.00 and a pIC50 ([19]; read-out: IC50,u, IL-7, pSTAT5) of 7.31. For the same compound, the pIC50 ([20]; read-out: IC50, IL-6, pSTAT1, CD14+ cells) was 7.59, the pIC50 ([20]; read-out: IC50,u, IL-6, pSTAT1, CD14+ cells) was 7.89 and the “LogIC50, IFNγ induced pSTAT1, single experiment” value [21] was -7.002 log[M]. It also gave a pIC50 ([21]; read-out: IC50, IFNγ induced pSTAT1, single experiment) of 7.00, a pIC50 ([21]; read-out: IC50, IFNγ, pSTAT1) of 6.96 and a pIC50 ([21]; read-out: IC50,u, IFNγ, pSTAT1) of 7.28. The pIC50 ([22]; read-out: IC50, TPO, pSTAT5) was 6.53, the pIC50 ([22]; read-out: IC50,u, TPO, pSTAT5) was 6.84 and the “LogIC50, IL-6 induced pSTAT1 (CD3+ cells), single experiment” value [23] was -7.893 log[M]. For the same compound, the pIC50 ([23]; read-out: IC50, IL-6, pSTAT1, CD3+ cells) was 7.92, the pIC50 ([23]; read-out: IC50, IL-6 induced pSTAT1 (CD3+ cells), single experiment) was 7.89 and the pIC50 ([23]; read-out: IC50,u, IL-6, pSTAT1, CD3+ cells) was 8.23. The “reduction of CRP levels from baseline to week 12” value (CRP) was -8.8 mg/L, the pIC50 ([24]; read-out: IC50, IL-2, pSTAT5) was 7.30 and the pIC50 ([24]; read-out: IC50,u, IL-2, pSTAT5) was 7.62. The herpes zoster occurrence [25] was “reported”, the “LogIC50, IL-12 induced pSTAT4, single experiment” value [26] was -6.953 log[M] and the pIC50 ([26]; read-out: IC50, IL-12, pSTAT4) was 6.84. The pIC50 ([26]; read-out: IC50, IL-12 induced pSTAT4, single experiment) was 6.95, the pIC50 ([26]; read-out: IC50,u, IL-12, pSTAT4) was 7.15 and the pIC50 ([27]; read-out: IC50, IL-21, pSTAT3) was 7.29. It also gave a pIC50 ([27]; read-out: IC50,u, IL-21, pSTAT3) of 7.60 and a fraction unbound at 6 h, 1 μmol/L (in vitro) of 0.56.
